The source of these data is patent US7629349B2, “Pyrazolo [3,4-d] pyrimidine derivatives and their use as purinergic receptor antagonists” (Vernalis Research Limited, priority 2001, dated 2009).

Structures can show the parent of a compound that is named as a salt.

What is called Ki is a measure of affinity in units of concentration, obtained from inhibition or displacement. A low value points to a stronger hold on the target. Broadly, the melting point is the temperature, or range, at which the solid turns liquid.

The target of the first data set is human adenosine A2A receptor (Homo sapiens, UniProt P29274). The data set is described as follows: Binding affinities at hA2A receptors, displacement of [3H]-CGS 21680.
Sequence of human adenosine A2A receptor (P29274 whole entry): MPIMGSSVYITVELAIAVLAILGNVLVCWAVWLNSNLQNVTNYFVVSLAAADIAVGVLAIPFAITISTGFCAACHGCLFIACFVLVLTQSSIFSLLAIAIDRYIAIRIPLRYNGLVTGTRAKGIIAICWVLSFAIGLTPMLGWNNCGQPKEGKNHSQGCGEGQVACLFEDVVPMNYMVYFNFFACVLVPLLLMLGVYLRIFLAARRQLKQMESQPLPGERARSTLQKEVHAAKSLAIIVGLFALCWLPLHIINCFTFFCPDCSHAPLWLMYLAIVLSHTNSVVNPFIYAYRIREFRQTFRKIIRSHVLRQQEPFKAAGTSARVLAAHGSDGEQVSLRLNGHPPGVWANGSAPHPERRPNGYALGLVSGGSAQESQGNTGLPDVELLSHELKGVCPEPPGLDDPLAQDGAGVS
Settings: not given
Background: Displacement assays read how much labelled ligand stays bound in the presence of the test substance.
Compound `Nc1nc(-c2ccco2)c2cnn(Cc3ccccc3F)c2n1` [Example 14, 1-(2-fluorobenzyl)-4-(2-furyl)-1H-pyrazolo[3,4-d]pyrimidine-6-amine] gave an inhibition constant (Ki) of 2 nM.
The same measure, in the same setting: under `Cc1cccc(Cn2ncc3c(-c4ccco4)nc(N)nc32)c1` [Example 15, 4-(2-furyl)-1-(3-methylbenzyl)-1H-pyrazolo[3,4-d]pyrimidine-6-amine] stands 2 nM.
Same read-out and setting: under `Nc1nc(-c2cccs2)c2cnn(Cc3ccccc3F)c2n1` [Example 28, 1-(2-fluorobenzyl)-4-(2-thienyl)-1H-pyrazolo[3,4-d]pyrimidine-6-amine] stands 5 nM; under `Nc1nc(-c2ccco2)c2cnn(CCCc3ccccc3)c2n1` [Example 31, 4-(2-furyl)-1-(3-phenylpropyl)-1H-pyrazolo[3,4-d]pyrimidine-6-amine], 2 nM; under `Nc1nc(-c2nnc[nH]2)c2cnn(Cc3ccccc3F)c2n1` [Example 51, 1-(2-fluorobenzyl)-4-(1,2,4-triazol-3-yl)-1H-pyrazolo[3,4-d]pyrimidine-6-amine], 71 nM.

The data set is the same for the next values; noted with them: human adenosine A2A receptor, radioligand [3H]-CGS 21680.
`Nc1nc(-c2ccco2)c2cnn(Cc3ccccc3Cl)c2n1` [Example 11, 1-(2-chlorobenzyl)-4-(2-furyl)-1H-pyrazolo[3,4-d]pyrimidine-6-amine] registered a Ki of 9 nM.
Consider `COc1cccc(Cn2ncc3c(-c4ccco4)nc(N)nc32)c1` [Example 12, 4-(2-furyl)-1-(3-methoxybenzyl)-1H-pyrazolo[2,4-d]pyrimidine-6-amine], for which the inhibition constant (Ki) was 2 nM.
Still for that read-out and setting: under `Nc1nc(-c2ccco2)c2cnn(Cc3ccc(C(F)(F)F)cc3)c2n1` [Example 22, 4-(2-furyl)-1-(4-trifluoromethylbenzyl)-1H-pyrazolo[3,4-d]pyrimidine-6-amine] stands 6 nM; under `Nc1nc(-c2ccco2)c2cnn(Cc3c(F)cccc3F)c2n1` [Example 24, 1-(2,6-difluorobenzyl)-4-(2-furyl)-1H-pyrazolo[3,4-d]pyrimidine-6-amine], 2 nM; under `Nc1nc(-c2ccco2)c2cnn(Cc3cccc([N+](=O)[O-])c3)c2n1` [Example 30, 4-(2-furyl)-1-(3-nitrobenzyl)-1H-pyrazolo[3,4-d]pyrimidine-6-amine], 4 nM.
`Nc1cccc(Cn2ncc3c(-c4ccco4)nc(N)nc32)c1` [Example 32, 1-(3-aminobenzyl)-4-(2-furyl)-1H-pyrazolo[3,4-d]pyrimidine-6-amine] came in with an inhibition constant (Ki) of 4 nM.
The same measure, in the same setting: under `Nc1nc(-c2ccccn2)c2cnn(Cc3ccccc3F)c2n1` [Example 33, 1-(2-fluorobenzyl)-4-(2-pyridyl)-1H-pyrazolo[3,4-d]pyrimidine-6-amine] stands 12 nM; under `Nc1nc(-c2ccn[nH]2)c2cnn(Cc3ccccc3F)c2n1` [Example 55, 1-(2-fluorobenzyl)-4-(3-pyrazolyl)-1H-pyrazolo[3,4-d]pyrimidine-6-amine], 16 nM.
Still for that read-out and setting: under `Nc1nc(-c2ccco2)c2cnn(Cc3ccccc3N)c2n1` [Example 56, 1-(2-aminobenzyl)-4-(2-furyl)-1H-pyrazolo[3,4-d]pyrimidine-6-amine] stands 8 nM.

Tested on in another data set: not given
Test: not given
Settings: not given
`CC(C)n1ncc2c(-c3ccco3)nc(N)nc21` (as salt: HCl) [Example 21, 4-(2-furyl)-1-(1-methylethyl)-1H-pyrazolo[3,4-d]pyrimidine-6-amine]: the melting point is 191.4 to 191.5 °C.
`CCCCCn1ncc2c(-c3ccco3)nc(N)nc21` (as salt: HCl) [Example 23, 4-(2-furyl)-1-n-pentyl-1H-pyrazole[3,4-d]pyrimidine-6-amine] came in with a melting point of 218 °C.
`Nc1nc(-c2ccco2)c2cnn(CC(=O)Nc3ccccn3)c2n1` (as salt: HCl) [Example 29, 6-amino-4-(2-furyl)-N-(2-pyridyl)-1H-pyrazolo[3,4-d]pyrimidin-1-ylacetamide]: the melting point lay within 249.8 to 249.9 °C.
The compound `Clc1nc(-c2ccco2)c2cnn(CCc3ccccc3)c2n1` [Example 1, 6-chloro-4-(2-furyl)-1-(2-phenylethyl)-1H-pyrazolo[3,4-d]pyrimidine] registered a melting point of 85.1 to 85.6 °C.
In turn, `CC(C)(C)OC(=O)n1ncc2c(-c3ccco3)nc(N)nc21` [Example 4, tert-butyl 6-amino-4-(2-furyl)-1H-pyrazolo[3,4-d]pyrimidine-1-carboxylate] returned a melting point of 261.9 to 262.7 °C.
Still for that read-out and setting: under `CCOC(=O)Cn1ncc2c(-c3ccco3)nc(N)nc21` [Example 26, ethyl 6-amino-4-(2-furyl)-1H-pyrazolo[3,4-d]pyrimidine-1-ylacetate] stands 177 to 177.1 °C; under `Nc1nc(-c2ccco2)c2cnn(CC(=O)NCc3ccccc3)c2n1` [Example 34, 6-amino-N-benzyl-4-(2-furyl)-1H-pyrazolo[3,4-d]pyrimidin-1-ylacetamide], 276.8 to 277.2 °C; under `Nc1nc(-c2ccco2)c2cnn(CC(=O)Nc3ccccc3)c2n1` [Example 35, 6-amino-4-(2-furyl)-N-phenyl-1H-pyrazolo[3,4-d]pyrimidin-1-ylacetamide], 276.8 to 277.2 °C.
The compound `Nc1nc(-c2ccco2)c2cnn(CC(=O)NCc3ccco3)c2n1` [Example 37, 6-amino-4-(2-furyl)-N-(2-furylmetyl)-1H-pyrazolo[3,4-d]pyrimidin-1-ylacetamide] registered a melting point of 247.9 to 249.4 °C.
Turning to `COc1cccc(NC(=O)Cn2ncc3c(-c4ccco4)nc(N)nc32)c1` [Example 43, 6-amino-4-(2-furyl)-N-(3-methoxyphenyl)-1H-pyrazolo[3,4-d]pyrimidin-1-ylacetamide], the melting point lay in the range of 267.4 to 271.5 °C.
The same measure, in the same setting: under `Nc1nc(-c2ccco2)c2cnn(CC(=O)NCCc3ccccc3)c2n1` [Example 44, 6-amino-4-(2-furyl)-N-(2-phenylethyl)-1H-pyrazolo[3,4-d]pyrimidin-1-ylacetamide] stands 231.1 to 231.2 °C.
Same read-out and setting: under `Nc1nc(-c2ccco2)c2cnn(CC(=O)Nc3ccccc3F)c2n1` [Example 45, 6-amino-N-(2-fluorophenyl)-4-(2-furyl)-1H-pyrazolo[3,4-d]pyrimidin-1-ylacetamide] stands 276.2 to 278.5 °C.
Regarding `Cc1ccc(Cn2ncc3c(-c4ccn[nH]4)nc(N)nc32)cc1` [Example 50, 1-(4-methylbenzyl)-4-(1H-pyrazol-3-yl)-1H-pyrazolo[3,4-d]pyrimidine-6-amine], the melting point turned out to be 265.8 °C.
Same read-out and setting: under `Nc1nc(-c2nnc[nH]2)c2cnn(Cc3ccccc3F)c2n1` [Example 51, 1-(2-fluorobenzyl)-4-(1,2,4-triazol-3-yl)-1H-pyrazolo[3,4-d]pyrimidine-6-amine] stands 287.9 °C; under `Nc1nc(-c2ccn[nH]2)c2cnn(Cc3cccc([N+](=O)[O-])c3)c2n1` [Example 59, 1-(3-nitrobenzyl)-4-(3-pyrazolyl)-1H-pyrazolo[3,4-d]pyrimidine-6-amine], 278.5 to 279 °C; under `Nc1cccc(Cn2ncc3c(-c4nnc[nH]4)nc(N)nc32)c1` [Example 60, 1-(3-aminobenzyl)-4-(1,2,4-triazol-3-yl)-1H-pyrazolo[3,4-d]pyrimidine-6-amine], 193.3 to 193.4 °C.
Take `Nc1nc(-c2nccs2)c2cnn(Cc3cccc([N+](=O)[O-])c3)c2n1` [Example 61, 1-(3-nitrobenzyl)-4-(2-thiazolyl)-1H-pyrazolo[3,4-d]pyrimidine-6-amine]: the melting point lay in the range of 193.3 to 193.4 °C.
Same read-out and setting: under `Nc1cccc(Cn2ncc3c(-c4nccs4)nc(N)nc32)c1` [Example 62, 1-(3-aminobenzyl)-4-(2-thiazolyl)-1H-pyrazolo[3,4-d]pyrimidine-6-amine] stands 177.8 to 178.3 °C; under `COc1cccc(Cn2ncc3c(-c4ccn[nH]4)nc(N)nc32)c1` [Example 64, 1-(3-methoxybenzyl)-4-(1H-pyrazol-3-yl)-1H-pyrazolo[3,4-d]pyrimidine-6-amine], 171 to 172 °C.

A further data set concerns Parkinsonian patients.
Test: not given
Conditions: 15 Parkinsonian patients, up to 12 weeks, 150 mg/day oral; cited from earlier work.
Consider `Cn1c(=O)c2[nH]cnc2n(C)c1=O` [theophylline, 1,3-dimethylxanthine], for which the “mean objective disability scores” value is “significant improvements”.

Still in this data set, the particulars now being: of 15 Parkinsonian patients, up to 12 weeks, 150 mg/day oral; cited from earlier work.
Turning to `Cn1c(=O)c2[nH]cnc2n(C)c1=O` [theophylline, 1,3-dimethylxanthine], the “patients reporting moderate or marked subjective improvement” value is reported as 11.

The data set is the same for the next values; noted with them: slow release oral theophylline preparation 150 mg/day, after one week; cited from earlier work.
On to `Cn1c(=O)c2[nH]cnc2n(C)c1=O` [theophylline, 1,3-dimethylxanthine], for which the serum theophylline levels is 4.44 mg/L.

A further data set concerns catalepsy.
Test: not given
Conditions: in vivo; cited from earlier work.
Regarding `CCCn1c(=O)c2c(nc(/C=C/c3ccc(OC)c(OC)c3)n2C)n(CCC)c1=O` [KF 17837, (E)-8-(3,4-dimethoxystyryl)-1,3-dipropyl-7-methylxanthine], the “anticataleptic effects of a subthreshold dose of L-DOPA plus benserazide” value is reported as “potentiated”; the “catalepsy induced by haloperidol and reserpine” value is recorded as “reduced”.

The data set is the same for the next values; noted with them: oral administration; cited from earlier work.
As to `CCCn1c(=O)c2c(nc(/C=C/c3ccc(OC)c(OC)c3)n2C)n(CCC)c1=O` [KF 17837, (E)-8-(3,4-dimethoxystyryl)-1,3-dipropyl-7-methylxanthine], the “cataleptic responses induced by intracerebroventricular CGS 21680” value is reported as “significantly ameliorated”.
